Inhibition data for 1 compound are collected here from US11572590B2, “Methods for evaluating tumor cell spheroids using 3D microfluidic cell culture device” (Dana-Farber Cancer Institute, Inc., priority 2017, dated 2023).

Common to all, as to assay: SelectScreen Kinase Profiling, single point inhibition and IC50 for off-target kinases
Holding throughout (assay type): biochemical

Test [1] deals with off-target kinases (Homo sapiens, UniProt P06239). The settings on record: LCK, ZLYTE, ATP Km app.
Test [2] concerns the target T1, off-target kinases (Homo sapiens, UniProt P54760).
T1 sequence (P54760 16-987): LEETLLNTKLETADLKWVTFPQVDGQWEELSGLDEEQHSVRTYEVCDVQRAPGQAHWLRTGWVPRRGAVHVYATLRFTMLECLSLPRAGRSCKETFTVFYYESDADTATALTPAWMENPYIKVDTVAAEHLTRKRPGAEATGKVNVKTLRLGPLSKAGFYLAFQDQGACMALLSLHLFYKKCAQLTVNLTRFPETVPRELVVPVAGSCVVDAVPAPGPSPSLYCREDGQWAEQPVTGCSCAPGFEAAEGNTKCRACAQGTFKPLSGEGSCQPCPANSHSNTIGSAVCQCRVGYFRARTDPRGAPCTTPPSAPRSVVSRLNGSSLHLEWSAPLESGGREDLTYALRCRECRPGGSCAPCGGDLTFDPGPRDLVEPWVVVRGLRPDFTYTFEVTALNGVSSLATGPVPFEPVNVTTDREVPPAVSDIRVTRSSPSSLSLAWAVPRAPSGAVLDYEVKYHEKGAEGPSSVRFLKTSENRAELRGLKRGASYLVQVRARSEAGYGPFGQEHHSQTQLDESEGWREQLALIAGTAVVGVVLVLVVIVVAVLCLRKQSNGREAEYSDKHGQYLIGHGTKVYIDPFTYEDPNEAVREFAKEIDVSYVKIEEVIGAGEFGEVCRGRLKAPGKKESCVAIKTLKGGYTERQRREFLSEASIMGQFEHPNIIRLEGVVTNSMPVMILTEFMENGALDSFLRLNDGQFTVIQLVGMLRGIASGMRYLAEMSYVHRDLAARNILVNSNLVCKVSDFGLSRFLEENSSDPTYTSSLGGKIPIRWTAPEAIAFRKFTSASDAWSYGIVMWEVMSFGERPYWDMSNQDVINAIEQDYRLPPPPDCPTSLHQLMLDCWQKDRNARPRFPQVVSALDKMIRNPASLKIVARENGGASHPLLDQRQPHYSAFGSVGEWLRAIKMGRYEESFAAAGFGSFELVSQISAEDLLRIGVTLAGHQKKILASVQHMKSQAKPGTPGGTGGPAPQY
Particulars: EPHB4, ZLYTE, ATP Km app.

Test [3] deals with off-target kinases (Homo sapiens, UniProt P51451). The settings on record: BLK, ATP Km app, ZLYTE.
The target in test [4] is off-target kinases (Homo sapiens, UniProt Q86Z02). Particulars: HIPK1 (Myak), ZLYTE, ATP Km app.
In test [5] the target is off-target kinases (Homo sapiens, UniProt P07949, Y791F). Particulars: RET Y791F, ATP Km app, ZLYTE.

Like-named read-outs stand apart in the source and are kept apart here.

Broadly, the inhibition is the change of the read-out against control, counted positive when it falls.

Sequence of off-target kinases (Homo sapiens, UniProt P06239) (P06239 whole entry): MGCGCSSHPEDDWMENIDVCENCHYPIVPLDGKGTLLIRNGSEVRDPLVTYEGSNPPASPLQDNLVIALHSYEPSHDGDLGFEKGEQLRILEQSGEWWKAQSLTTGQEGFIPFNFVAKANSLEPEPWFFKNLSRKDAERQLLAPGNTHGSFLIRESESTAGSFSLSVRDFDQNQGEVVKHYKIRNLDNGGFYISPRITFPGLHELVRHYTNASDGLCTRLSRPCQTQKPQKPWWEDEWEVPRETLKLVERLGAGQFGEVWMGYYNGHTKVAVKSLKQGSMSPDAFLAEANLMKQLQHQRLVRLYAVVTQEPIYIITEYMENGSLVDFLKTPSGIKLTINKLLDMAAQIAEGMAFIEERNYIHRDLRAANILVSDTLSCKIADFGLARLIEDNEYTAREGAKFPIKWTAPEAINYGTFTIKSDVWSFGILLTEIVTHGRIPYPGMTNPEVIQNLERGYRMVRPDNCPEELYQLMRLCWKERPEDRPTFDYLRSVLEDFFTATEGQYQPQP
Sequence of off-target kinases (Homo sapiens, UniProt P51451) (P51451 whole entry): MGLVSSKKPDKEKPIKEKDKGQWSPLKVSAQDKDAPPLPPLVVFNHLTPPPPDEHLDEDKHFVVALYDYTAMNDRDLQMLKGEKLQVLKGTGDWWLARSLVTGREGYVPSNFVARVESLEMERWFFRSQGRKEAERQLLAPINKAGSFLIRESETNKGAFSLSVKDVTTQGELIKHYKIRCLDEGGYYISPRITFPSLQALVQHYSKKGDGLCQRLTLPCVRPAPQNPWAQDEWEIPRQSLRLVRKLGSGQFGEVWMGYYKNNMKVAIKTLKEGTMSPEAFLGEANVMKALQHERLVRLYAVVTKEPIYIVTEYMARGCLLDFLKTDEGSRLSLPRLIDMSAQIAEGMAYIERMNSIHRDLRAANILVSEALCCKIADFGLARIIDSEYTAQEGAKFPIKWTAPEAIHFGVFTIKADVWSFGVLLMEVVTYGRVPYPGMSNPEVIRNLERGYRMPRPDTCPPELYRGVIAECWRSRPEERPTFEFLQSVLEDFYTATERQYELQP
Sequence of off-target kinases (Homo sapiens, UniProt P07949, Y791F) (P07949 29-1114 Y791F): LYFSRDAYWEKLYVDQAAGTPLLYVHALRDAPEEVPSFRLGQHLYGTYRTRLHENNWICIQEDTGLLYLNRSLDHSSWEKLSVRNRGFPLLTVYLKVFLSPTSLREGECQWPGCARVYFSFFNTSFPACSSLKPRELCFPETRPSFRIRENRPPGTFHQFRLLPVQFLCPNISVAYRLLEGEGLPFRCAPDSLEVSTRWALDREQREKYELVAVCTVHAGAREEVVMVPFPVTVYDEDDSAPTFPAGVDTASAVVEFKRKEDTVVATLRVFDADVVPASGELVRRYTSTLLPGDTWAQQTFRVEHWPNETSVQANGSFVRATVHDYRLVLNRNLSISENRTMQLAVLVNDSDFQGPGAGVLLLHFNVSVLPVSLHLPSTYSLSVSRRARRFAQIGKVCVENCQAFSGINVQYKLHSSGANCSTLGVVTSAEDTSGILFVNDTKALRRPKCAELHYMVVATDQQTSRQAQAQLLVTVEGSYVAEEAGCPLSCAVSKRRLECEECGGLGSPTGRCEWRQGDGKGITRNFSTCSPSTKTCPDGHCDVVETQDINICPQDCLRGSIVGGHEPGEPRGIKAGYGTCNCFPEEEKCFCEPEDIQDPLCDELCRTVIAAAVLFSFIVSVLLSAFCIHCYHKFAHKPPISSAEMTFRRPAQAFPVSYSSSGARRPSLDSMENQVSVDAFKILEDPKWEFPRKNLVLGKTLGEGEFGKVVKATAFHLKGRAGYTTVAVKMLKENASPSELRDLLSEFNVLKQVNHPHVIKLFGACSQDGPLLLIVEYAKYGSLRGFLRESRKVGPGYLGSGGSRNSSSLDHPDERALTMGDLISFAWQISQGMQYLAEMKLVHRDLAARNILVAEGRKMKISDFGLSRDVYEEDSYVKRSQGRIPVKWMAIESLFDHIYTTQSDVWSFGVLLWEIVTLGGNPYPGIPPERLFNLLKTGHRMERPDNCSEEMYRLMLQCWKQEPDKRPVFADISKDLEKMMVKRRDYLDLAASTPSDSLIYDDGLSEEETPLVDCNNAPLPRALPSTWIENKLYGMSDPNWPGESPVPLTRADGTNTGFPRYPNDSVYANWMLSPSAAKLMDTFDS
Sequence of off-target kinases (Homo sapiens, UniProt Q86Z02) (Q86Z02 whole entry): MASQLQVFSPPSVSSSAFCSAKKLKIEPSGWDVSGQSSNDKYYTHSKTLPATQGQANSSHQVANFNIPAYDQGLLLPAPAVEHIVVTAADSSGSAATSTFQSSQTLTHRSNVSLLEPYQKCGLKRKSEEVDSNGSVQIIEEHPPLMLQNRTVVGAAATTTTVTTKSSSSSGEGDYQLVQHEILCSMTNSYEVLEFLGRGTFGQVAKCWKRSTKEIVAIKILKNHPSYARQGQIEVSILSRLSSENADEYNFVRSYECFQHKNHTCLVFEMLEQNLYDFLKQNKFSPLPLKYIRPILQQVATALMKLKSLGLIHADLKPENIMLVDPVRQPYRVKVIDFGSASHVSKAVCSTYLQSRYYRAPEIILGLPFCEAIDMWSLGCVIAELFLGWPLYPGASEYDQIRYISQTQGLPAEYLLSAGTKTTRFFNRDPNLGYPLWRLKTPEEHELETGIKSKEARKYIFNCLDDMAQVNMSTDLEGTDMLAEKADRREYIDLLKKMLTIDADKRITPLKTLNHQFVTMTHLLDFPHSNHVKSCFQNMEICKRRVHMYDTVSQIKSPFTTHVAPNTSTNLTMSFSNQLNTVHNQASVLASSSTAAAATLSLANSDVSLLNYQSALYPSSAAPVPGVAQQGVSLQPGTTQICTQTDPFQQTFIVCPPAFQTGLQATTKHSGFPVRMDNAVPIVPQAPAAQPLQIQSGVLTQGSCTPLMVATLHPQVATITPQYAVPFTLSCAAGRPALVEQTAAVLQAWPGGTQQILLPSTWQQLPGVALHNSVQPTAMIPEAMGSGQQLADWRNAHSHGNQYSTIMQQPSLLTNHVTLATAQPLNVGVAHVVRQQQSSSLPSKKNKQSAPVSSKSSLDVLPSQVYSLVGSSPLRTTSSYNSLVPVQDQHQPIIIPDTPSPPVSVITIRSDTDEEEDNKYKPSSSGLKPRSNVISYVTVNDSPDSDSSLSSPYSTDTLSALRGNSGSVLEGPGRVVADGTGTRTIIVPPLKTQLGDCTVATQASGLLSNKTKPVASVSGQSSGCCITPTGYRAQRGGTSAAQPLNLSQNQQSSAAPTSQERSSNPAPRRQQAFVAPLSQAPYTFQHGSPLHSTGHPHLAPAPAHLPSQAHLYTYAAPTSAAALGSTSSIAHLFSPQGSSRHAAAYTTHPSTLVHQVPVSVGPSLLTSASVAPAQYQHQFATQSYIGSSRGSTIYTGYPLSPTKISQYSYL

Consider `N#Cc1cc(-c2ncnc(Nc3ccc(N4CCN(C5COC5)CC4)cc3)n2)ccc1OC1CCOCC1` [Compound 1, 5-(4-((4-(4-(oxetan-3-yl)piperazin-1-yl)phenyl)amino)-1,3,5-triazin-2-yl)-2-((tetrahydro-2H-pyran-4-yl)oxy)benzonitrile], for which the inhibition worked out at 41% in test [1] (read-out: % Inhibition 1); 38% in test [1] (read-out: % Inhibition 2); 40% in test [1] (read-out: % Inhibition Avg); 15% in test [2] (read-out: % Inhibition 1); 14% in test [2] (read-out: % Inhibition 2); 15% in test [2] (read-out: % Inhibition Avg). Also, the inhibition in test [3] (read-out: % Inhibition 1) came to 41%; in test [3] (read-out: % Inhibition 2) it was 42%; in test [3] (read-out: % Inhibition Avg), 42%; in test [4] (read-out: % Inhibition 1), 11%; in test [4] (read-out: % Inhibition 2) it was 13%; in test [4] (read-out: % Inhibition Avg), 12%. Moreover, the inhibition in test [5] (read-out: % Inhibition 1) stood at 57%; in test [5] (read-out: % Inhibition 2) it was 43%; in test [5] (read-out: % Inhibition Avg), 50%.
